Several values for one entry are separate records, joined by “and”; a condition that tells them apart may be missing. Equal values may be shown once.
Tests used:
HT29 human colon cancer = assay: Anti-HT29 human colon cancer in BALB/c (nu/nu) nude mice; format: in vivo; parameters: body weight of HT29-bearing nude mice / tumor volume of HT29-bearing nude mice / Tumor mass: unit not given here; details: for body weight of HT29-bearing nude mice / tumor volume of HT29-bearing nude mice: Sc; for Inhibition rate: from average tumor mass vs model; for Tumor index: tumor mass/body weight
Method: Human resources Colon cancer cell line HT29 was cultured in the same condition as the experiment 4. […] Mice were randomly assigned into 7 groups: […] The body weight and the tumor volume were measured and recorded weekly. The tumor volume was calculated according to the formula below. […] The tumors were departed and weighed.

HepG2 human heptoma = assay: Anti-HepG2 human heptoma in BALB/c (nu/nu) nude mice; details: for tumor volume of HepG2-bearing nude mice: Sc
Method: 70 male BALB/c (nu/nu) nude mice (18-20 g, License NO. SCXK (BJ) 2009-0017, National Institutes for Food and Drug Control.) were adaptively bred for one week, and then used in the following experiment.
Human resources hepatoma cell line HepG2 was cultured in RPMI-1640 medium containing 100 U/mL Penicillin and 100 μg/mL Streptomycin with 10% fetal bovine serum and maintained at 37° C. in a humidified atmosphere (5% CO2 and […]).
70 BALB/c (nu/nu) nude mice were adaptively bred for 1 week, HepG2 cells were inoculated subcutaneously into the back of nude mice, 1×10^7 cells per mouse. […] 3 days after inoculation, mice of every therapeutic group were all given the relevant compounds or drugs for 3 weeks, and others were given isodose physiological saline.
The body weight and the size of tumor were measured and recorded weekly. The tumor volume was calculated with the formula below:
tumor volume V=π/6×a×b^2 (a, b means the transverse and longitudinal length of tumor)
At the end of administration, mice were fastened for 8 hours, weighed the fasting body weight, dropped off eyeball to collect blood, centrifuged and collected serum for next experiment. The tumors were departed and weighed. Tumor Index and inhibition rate were calculated as below:
Tumor Index=Tumor mass (mg)/body weight of animal (g)
Inhibition rate=(Average tumor massControl group−Average tumor massadministration group)/Average tumor massControl group×100%
Mice in the model group were injected with sterile water (10 ml/kg BW), Sc. All the animals were treated at 9 am for 3 weeks.
Determination of body weights: Body weights of animals were weighed and recorded once a week.
Tumor measurement: The transverse and longitudinal lengths of tumor were measured with vernier caliper weekly.
End of the experiment: After mice being administrated for 3 weeks (21 days), the experiment was terminated.

[1] = test system: BGC823 human gastric adenocarcinoma; assay: Anti-BGC823 human gastric adenocarcinoma in BALB/c (nu/nu) nude mice; format: in vivo; parameters: tumor volume of BGC823-bearing nude mice / Tumor mass: unit not given here; details: for body weight of BGC823-bearing nude mice / tumor volume of BGC823-bearing nude mice: Sc; for body weight of BGC823-bearing nude mice: in g (unit assumed)
Method: Human resources gastric adenocarcinoma cell line BGC823 was cultured in the same condition as the experiment 4.
The body weight and the tumor volume were measured and recorded weekly. The tumor volume was calculated according to the formula below.
Tumors were departed and weighed. Tumor Index and inhibition rate were calculated as below: […]

A875 = assay: MTT inhibition of tumor cells in vitro (Example 3); format: cell-based, Human; details: 40 μg/mL, 48 hours
Method: (§1) Human resources tumor cell line […], […], HT29, MCF-7 and A875 were provided by Cancer Hospital, Chinese Academy of Medical Sciences.
(§2) Cells were passaged every 2 or 3 days, and all the experiments were carried out on exponentially growing cells.
(§3) All cells were cultured in a humidified atmosphere (5% CO2 and […]), and passaged every 2 or 3 days. Cells were harvested on exponentially growing phase, and cell suspension was prepared with 2×10^4 cells/mL, added with 100 μL per well of 96-well plates, and cultured for 24 h in incubator. 100 μL medium without cells was added per well as blank group.
(§4) Compound (1), (2), (3), (4), (7) or (8) was dissolved in DMSO respectively, and diluted with 1640 medium at a final concentration of 400 μg/mL, so as to that of the Cisplatin. Cells were divided into 9 groups, they were blank group, model group, Compound (1), (2), (3), (4), (7) and (8) groups, and Cisplatin group as the positive one, 6 wells per group.
(§5) Before drug administration, supernatant of each well was removed and fresh 1640 medium was added, 180 μL per well. Compounds and Cisplatin were added with 20 μL per well respectively at a final concentration of 40 μg/mL. Wells of blank and model groups were added with 0.5% DMSO, 20 μL per well. 48 hours later, 20 μL MTT was added per well and continued to culture for 4 hours, then the supernatant was replaced carefully and DMSO was added with 150 μL per well to end the experiment. The 96-well plates were shaken for 10 mins and read the absorbance at 490 nm. The Inhibition rate was calculated.
(§6) Inhibition rate=[(ODmodel−ODblank)−(ODdrugs−ODblank)]/(ODmodel−ODblank)×100%
(§7) The MTT experiment was repeated three times.

MCF-7 = assay: MTT inhibition of tumor cells in vitro (Example 3); format: cell-based, Human; details: 40 μg/mL, 48 hours
Method: as §1, §2, §3, §4, §5, §6, §7

HepG2 = assay: MTT inhibition of tumor cells in vitro (Example 3); format: cell-based, Human; details: 40 μg/mL, 48 hours
BGC823 = assay: MTT inhibition of tumor cells in vitro (Example 3); format: cell-based, Human; details: 40 μg/mL, 48 hours
Method: as §1, §2, §3, §4, §5, §6, §7

HT29 = assay: MTT inhibition of tumor cells in vitro (Example 3); format: cell-based, Human; details: 40 μg/mL, 48 hours
Method: as §1, §2, §3, §4, §5, §6, §7

[2] = 1 W, mg/kg BW: total saponins 1.5, Compound 1, combination 1 & 19, PTX 20
[3] = 2 W, mg/kg BW: total saponins 1.5, Compound 1, combination 1 & 19, PTX 20
[4] = 3 W, mg/kg BW: total saponins 1.5, Compound 1, combination 1 & 19, PTX 20
[5] = HT29-bearing nude mice, after 3 weeks
[6] = 1 W, mg/kg BW: total saponins 1.5, Compound 1, combination 1 & 19, 5-FU 20
[7] = 2 W, mg/kg BW: total saponins 1.5, Compound 1, combination 1 & 19, 5-FU 20
[8] = 3 W, mg/kg BW: total saponins 1.5, Compound 1, combination 1 & 19, 5-FU 20

Row | Compound | tumor volume of HT29-bearing nude mice (HT29 human colon cancer; [2]) | tumor volume of HT29-bearing nude mice (HT29 human colon cancer; [3]) | tumor volume of HT29-bearing nude mice (HT29 human colon cancer; [4]) | Inhibition rate (HT29 human colon cancer; [5]) [%] | Tumor index (HT29 human colon cancer; [5]) | Inhibition rate, A875 (A875) [%] | Inhibition rate, MCF-7 (MCF-7) [%] | Inhibition rate, HepG2 (HepG2) [%] | Inhibition rate, BGC823 (BGC823) [%] | Inhibition rate, HT29 (HT29) [%] | further results
1 | CC(=O)O[C@H]1C(=O)[C@@]2(C)[C@H]([C@H](OC(=O)c3ccccc3)[C@]3(O)C[C@H](OC(=O)[C@H](O)[C@@H](NC(=O)c4ccccc4)c4ccccc4)C(C)=C1C3(C)C)[C@]1(OC(C)=O)CO[C@@H]1C[C@@H]2O [PTX, Paclitaxel, reference compound] | 943.55 ± 516.62 | 996.66 ± 347.05 | 801.38 ± 259.34 | 60.81 | 0.06 ± 0.03 |  |  |  |  |  | body weight of HT29-bearing nude mice (HT29 human colon cancer; 0 W, mg/kg BW: total saponins 1.5, Compound 1, combination 1 & 19, PTX 20): 20.60 ± 1.32; body weight of HT29-bearing nude mice (HT29 human colon cancer; [2]): 20.30 ± 1.68; body weight of HT29-bearing nude mice (HT29 human colon cancer; [3]): 19.80 ± 1.77; body weight of HT29-bearing nude mice (HT29 human colon cancer; [4]): 19.20 ± 1.37
2 | sinocrassuloside VI [Compound (1)] | 1094.99 ± 678.00 | 907.89 ± 738.11 | 814.93 ± 450.73 | 50.44 | 0.05 ± 0.02 | 88.02 ± 12.57 | 83.12 ± 2.33 |  |  |  | Tumor mass (HT29 human colon cancer; HT29-bearing nude mice, after 3 weeks, mg/kg BW: total saponins 1.5, Compound 1, combination 1 & 19, PTX 20): 1.15 ± 0.52; tumor volume of HepG2-bearing nude mice (HepG2 human heptoma; 1 W, mg/kg BW: total saponins 1.5, Compound 1, combination 1 & 39, Cytoxan 40): 922.51 ± 624.95; tumor volume of HepG2-bearing nude mice (HepG2 human heptoma; 2 W, mg/kg BW: total saponins 1.5, Compound 1, combination 1 & 39, Cytoxan 40): 1060.32 ± 570.38; tumor volume of HepG2-bearing nude mice (HepG2 human heptoma; 3 W, mg/kg BW: total saponins 1.5, Compound 1, combination 1 & 39, Cytoxan 40): 1033.33 ± 656.54; Inhibition rate (HepG2 human heptoma; HepG2-bearing nude mice, after 3 weeks, from average tumor mass vs model): 80.05%; Tumor mass (HepG2 human heptoma; HepG2-bearing nude mice, after 3 weeks, mg/kg BW: total saponins 1.5, Compound 1, combination 1 & 39, Cytoxan 40): 0.59 ± 0.29; Tumor index (HepG2 human heptoma; HepG2-bearing nude mice, after 3 weeks, tumor mass/body weight): 0.03 ± 0.01; body weight of BGC823-bearing nude mice ([1]; 0 W, mg/kg BW: total saponins 1.5, Compound 1, combination 1 & 19, 5-FU 20): 20.30 ± 1.06; tumor volume of BGC823-bearing nude mice [1, 6]: 850.16 ± 539.70; body weight of BGC823-bearing nude mice [1, 6]: 21.50 ± 1.18; tumor volume of BGC823-bearing nude mice [1, 7]: 997.88 ± 499.61; body weight of BGC823-bearing nude mice [1, 7]: 22.70 ± 1.16; tumor volume of BGC823-bearing nude mice [1, 8]: 845.04 ± 239.21; body weight of BGC823-bearing nude mice [1, 8]: 23.70 ± 1.06; Inhibition rate ([1]; BGC823-bearing nude mice, after 3 weeks, from average tumor mass vs model): 64.54% and 61.54%; Tumor mass ([1]; BGC823-bearing nude mice, after 3 weeks, mg/kg BW: total saponins 1.5, Compound 1, combination 1 & 19, 5-FU 20): 1.05 ± 0.36; Tumor index ([1]; BGC823-bearing nude mice, after 3 weeks, tumor mass/body weight): 0.04 ± 0.02
3 | sinocrassuloside VIII [Compound (3)] |  |  |  |  |  | 68.35 ± 5.37 | 90.12 ± 7.43 | 74.35 ± 1.51 | 92.09 ± 1.13 | 56.62 ± 4.24 | 
4 | sinocrassuloside XII [Compound (7)] |  |  |  |  |  | 55.64 ± 9.88 | 58.12 ± 6.26 | 21.83 ± 1.53 | 77.08 ± 5.73 | 62.67 ± 3.12 | 
